Assay results as given in patent US7999069B2, “EphB receptor-binding peptides” (Sanford-Burnham Medical Research Institute, priority 2005, dated 2011).
No end group written: not given here.

Experiments:
EphB1 [1] = biological target: T1, EphB1 (Homo sapiens, UniProt P54762); experiment: Peptide competition of phage binding to EphB1 ectodomain
T1 construct: panned on the ectodomains of EphB1, EphB2, or EphB4 fused to human Fc
T1 sequence (P54762 18-540 limits assumed): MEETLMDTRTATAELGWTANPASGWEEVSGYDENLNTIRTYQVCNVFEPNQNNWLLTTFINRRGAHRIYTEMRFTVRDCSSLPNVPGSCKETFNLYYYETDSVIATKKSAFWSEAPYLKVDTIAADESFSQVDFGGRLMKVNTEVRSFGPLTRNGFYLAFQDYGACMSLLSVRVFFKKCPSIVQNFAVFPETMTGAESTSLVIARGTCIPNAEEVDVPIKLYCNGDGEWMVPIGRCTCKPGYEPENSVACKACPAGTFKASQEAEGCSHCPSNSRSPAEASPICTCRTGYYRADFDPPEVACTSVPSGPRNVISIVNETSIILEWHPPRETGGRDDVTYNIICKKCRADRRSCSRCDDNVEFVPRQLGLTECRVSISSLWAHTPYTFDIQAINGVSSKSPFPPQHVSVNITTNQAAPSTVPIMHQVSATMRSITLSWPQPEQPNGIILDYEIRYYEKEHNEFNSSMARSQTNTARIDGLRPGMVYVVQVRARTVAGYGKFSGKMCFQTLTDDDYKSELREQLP
Experimental: To measure peptide competition of phage binding to EphB receptors, Ni-NTA wells coated with Eph ectodomain Fc were incubated for 30 min at room temperature with various peptide concentrations in binding buffer (100 μl/well). Concentrated stocks of phage clones diluted between 1:500 and 1:10,000 in binding buffer were then added to the wells for a 1 hr at room temperature. Wells were washed and bound phage were detected using the anti-M13 antibody. A biotinylated control peptide with sequence unrelated to the sequences of the Eph-binding peptides ([…], SEQ ID NO: 40) was used as a negative control in some of the experiments, as indicated in the figure legends.
[…]. The SNEW peptide at 25 μM inhibited EphB2 binding of most phage clones isolated by panning on EphB2 (FIGS. 2E and G). The only exceptions were the IHWP, DHRWV and WHWT clones. However, binding of these clones was inhibited by 50 μM SNEW peptide, particularly when the phage concentration was halved. […] Bound phage were detected using anti-M13 phage antibody coupled to HRP and phage binding in the presence of peptide was normalized to phage binding in the absence of peptide. Error bars indicate standard deviation from duplicate measurements, and were calculated taking into account propagation of errors.

EphB receptors = experiment: Ephrin-B2 AP binding to different EphB ectodomains in presence of peptide (selectivity); conditions: 50 μM peptide
Experimental: Ephrin-B2 AP binding to the indicated immobilized EphB receptor ectodomains was measured in the presence of the indicated peptides and detected by measuring alkaline phosphatase activity. […] Wells coated with the different EphB ectodomains were incubated with ephrin-B2 AP and 50 μM of the indicated peptides. Ephrin-B2 AP binding in the presence of peptide was normalized to binding in the absence of peptide. All peptides were biotinylated except for FSPQ and EWYM. […] The EWYM, TWO, and FSPQ peptides were not synthesized with a biotin tag and therefore were tested directly for inhibition of ephrin-B2 binding.
Ephrin-B2 AP was co-incubated for 1 hr with different peptide concentrations in Ni-NTA wells coated with 1 μg/ml Eph receptor Fc. After several washes, the amount of ephrin-B2-AP bound was quantified using p-nitrophenylphosphate as a substrate. Alkaline phosphatase activity from wells without EphB Fc was subtracted as background. […] In these experiments, the two peptides are not biotinylated. […] Ephrin-B2-AP binding in the presence of peptide was normalized to binding in the absence of peptide in (A) and (B).

EphB1 [2] = biological target: T2, EphB1 (Homo sapiens, UniProt P54762); experiment: Ephrin-B1 Fc-induced EphB1 tyrosine phosphorylation in human aortic endothelial cells; format: cell-based; conditions: concentrations up to 200 μM
T2 construct: endogenous EphB1 tyrosine phosphorylation; endogenous in cells; host or cells: human aortic endothelial cells
T2 sequence (P54762 18-984): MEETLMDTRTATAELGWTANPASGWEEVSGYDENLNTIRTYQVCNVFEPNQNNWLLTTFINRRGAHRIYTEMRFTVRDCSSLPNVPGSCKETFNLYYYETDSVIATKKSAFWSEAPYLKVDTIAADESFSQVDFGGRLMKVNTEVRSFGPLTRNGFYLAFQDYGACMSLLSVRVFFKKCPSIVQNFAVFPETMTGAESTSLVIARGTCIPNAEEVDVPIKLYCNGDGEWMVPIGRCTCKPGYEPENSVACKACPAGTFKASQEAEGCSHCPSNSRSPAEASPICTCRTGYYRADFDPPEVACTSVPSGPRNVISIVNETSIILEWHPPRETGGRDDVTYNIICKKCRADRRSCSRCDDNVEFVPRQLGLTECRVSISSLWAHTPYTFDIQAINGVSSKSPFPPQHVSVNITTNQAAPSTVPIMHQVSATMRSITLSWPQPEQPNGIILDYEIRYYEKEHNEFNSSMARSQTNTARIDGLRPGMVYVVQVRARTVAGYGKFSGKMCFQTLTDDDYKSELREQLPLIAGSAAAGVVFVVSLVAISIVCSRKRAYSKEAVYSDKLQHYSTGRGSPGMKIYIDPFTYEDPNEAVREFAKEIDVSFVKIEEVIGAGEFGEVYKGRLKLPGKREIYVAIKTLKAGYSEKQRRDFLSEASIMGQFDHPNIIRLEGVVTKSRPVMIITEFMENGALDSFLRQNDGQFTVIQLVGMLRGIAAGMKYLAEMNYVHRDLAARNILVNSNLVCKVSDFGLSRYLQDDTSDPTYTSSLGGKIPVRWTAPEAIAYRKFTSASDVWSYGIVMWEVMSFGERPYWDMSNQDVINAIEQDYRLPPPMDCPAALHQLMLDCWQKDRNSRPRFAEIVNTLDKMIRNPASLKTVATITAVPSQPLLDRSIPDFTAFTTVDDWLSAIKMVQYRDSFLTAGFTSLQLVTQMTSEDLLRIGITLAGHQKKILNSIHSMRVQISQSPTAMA

Inhibition of binding of the corresponding phage clone to EphB1 (EphB1 [1]; concentration-dependent): efficiently inhibited binding
Selectivity of antagonism of ephrin-B2 AP binding across EphB ectodomains (EphB receptors): selective
Sequence: EWLSPNLAPSVR [SEQ ID NO 1]
Inhibition of EphB1 binding of phage clones isolated by panning on EphB1 (EphB1 [1]; 5 μM peptide): inhibited EphB1 binding of the phage clones isolated by panning on EphB1
Inhibition of endogenous EphB1 tyrosine phosphorylation (EphB1 [2]): did not inhibit endogenous EphB1 tyrosine phosphorylation
